Results published in ChEMBL document CHEMBL4406848, “Novel water soluble BODIPY compounds: Synthesis, photochemical, DNA interaction, topoisomerases inhibition and photodynamic activity properties” (Eur J Med Chem, 2019).
Active and inactive are the calls of the source. The calls are words filed in the database; no cut-off is given here.

Tests used:
[1] = Induction of singlet oxygen generation in DMSO solution assessed as singlet oxygen quantum yield by measuring reduction in DPBF irradiated with 650 nanometer laser light; format: functional
[2] = Induction of singlet oxygen generation in TBS solution assessed as singlet oxygen quantum yield by measuring reduction in ADMA irradiated with 650 nanometer laser light; format: functional
[3] = Photostability of compound in TBS assessed as percentage of photodegradation measured every 10 mins for 1 hr at 17.5 mW/cm'2 irradiation by UV-visible spectrophotometry
Calf thymus DNA [4] = assay: Binding affinity to calf thymus DNA assessed as percentage of hypochromicity incubated for 10 mins by UV-visible spectrophotometry; format: nucleic-acid assay; conditions: Bos taurus
Calf thymus DNA [5] = assay: Binding affinity to calf thymus DNA assessed as binding constant incubated for 10 mins by UV-visible spectrophotometry; format: nucleic-acid assay; conditions: Bos taurus
Calf thymus DNA [6] = assay: Competitive binding affinity to calf thymus DNA assessed as change in viscosity incubated for 10 mins by viscometer; format: nucleic-acid assay; conditions: Bos taurus
DNA [7] = assay: Induction of Escherichia coli plasmid pBR322 DNA cleavage at 3.125 to 25 uM incubated for 1 hr in dark by agarose gel electrophoresis; format: nucleic-acid assay
DNA [8] = assay: Induction of Escherichia coli plasmid pBR322 DNA cleavage assessed as decrease in supercoiled DNA at 3.125 uM in presence of light irradiation and incubated for 1 hr by agarose gel electrophoresis relative to control; format: nucleic-acid assay; design: scale not given: the % may be the effect or the level left
[9] = target: T1, DNA topoisomerase 1 (Homo sapiens) (UniProt P11387); assay: Inhibition of recombinant human topoisomerase 1 at 25 uM incubated for 1 hr by ethidium bromide staining based agarose gel electrophoresis method relative to control
T1 sequence (whole entry): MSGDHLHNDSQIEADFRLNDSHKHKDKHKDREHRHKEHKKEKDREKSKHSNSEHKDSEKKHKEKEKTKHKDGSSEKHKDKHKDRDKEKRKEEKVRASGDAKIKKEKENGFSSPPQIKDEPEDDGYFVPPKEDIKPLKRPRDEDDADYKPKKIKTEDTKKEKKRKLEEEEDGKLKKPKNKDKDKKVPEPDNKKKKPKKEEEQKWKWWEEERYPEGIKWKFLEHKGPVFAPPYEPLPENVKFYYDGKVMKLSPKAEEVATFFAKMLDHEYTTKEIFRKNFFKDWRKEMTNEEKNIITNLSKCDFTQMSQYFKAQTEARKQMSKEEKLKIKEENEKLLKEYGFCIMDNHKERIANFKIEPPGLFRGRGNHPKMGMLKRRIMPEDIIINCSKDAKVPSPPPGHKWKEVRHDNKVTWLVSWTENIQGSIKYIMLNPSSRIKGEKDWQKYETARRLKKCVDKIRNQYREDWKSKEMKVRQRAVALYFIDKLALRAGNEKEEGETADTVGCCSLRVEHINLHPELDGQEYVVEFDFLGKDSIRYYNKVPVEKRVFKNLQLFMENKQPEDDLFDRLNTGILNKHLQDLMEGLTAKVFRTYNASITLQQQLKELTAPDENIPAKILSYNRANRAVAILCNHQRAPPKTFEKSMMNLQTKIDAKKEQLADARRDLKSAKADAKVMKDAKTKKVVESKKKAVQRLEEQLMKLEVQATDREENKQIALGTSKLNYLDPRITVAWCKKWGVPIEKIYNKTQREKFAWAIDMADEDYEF

[10] = target: T1, DNA topoisomerase 1 (Homo sapiens); assay: Inhibition of recombinant human topoisomerase 1 at 50 uM incubated for 1 hr by ethidium bromide staining based agarose gel electrophoresis method relative to control
[11] = target: T2, DNA topoisomerase II (Homo sapiens) (UniProt P11388+Q02880); assay: Inhibition of recombinant human topoisomerase 2 assessed as supercoiled DNA at 50 uM incubated for 1 hr by ethidium bromide staining based agarose gel electrophoresis method relative to control; format: protein assay; design: scale not given: the % may be the effect or the level left
[12] = target: T2, DNA topoisomerase II (Homo sapiens); assay: Inhibition of recombinant human topoisomerase 2 at 25 uM incubated for 1 hr by ethidium bromide staining based agarose gel electrophoresis method relative to control; format: protein assay
[13] = target: T2, DNA topoisomerase II (Homo sapiens); assay: Inhibition of recombinant human topoisomerase 2 at 50 uM incubated for 1 hr by ethidium bromide staining based agarose gel electrophoresis method relative to control; format: protein assay
HCT-116 [14] = assay: Cytotoxicity against human HCT116 cells assessed as cell viability at 0.5 and 1 uM incubated for 24 hrs in dark by MTT assay; format: functional, cell-based
HCT-116 [15] = assay: Cytotoxicity against human HCT116 cells assessed as cell viability at 100 uM incubated for 24 hrs in dark by MTT assay relative to control; format: functional; conditions: HCT-116, 24 h, read-out: Activity
HCT-116 [16] = assay: Cytotoxicity against human HCT116 cells assessed as cell viability at 50 uM incubated for 24 hrs in dark by MTT assay relative to control; format: functional; conditions: HCT-116, 24 h, read-out: Activity
HCT-116 [17] = assay: Cytotoxicity against human HCT116 cells assessed as cell viability incubated for 24 hrs in dark by MTT assay; format: functional, cell-based; conditions: for IC50: HCT-116, 24 h
HCT-116 [18] = assay: Cytotoxicity against human HCT116 cells assessed as cell viability at 5 uM incubated for 24 hrs in dark by MTT assay relative to control; format: functional; conditions: HCT-116, 24 h, read-out: Activity
HCT-116 [19] = assay: Cytotoxicity against human HCT116 cells assessed as cell viability at 1 uM incubated for 24 hrs in dark by MTT assay relative to control; format: functional; conditions: HCT-116, 24 h, read-out: Activity
HCT-116 [20] = assay: Cytotoxicity against human HCT116 cells assessed as cell viability at 0.5 uM incubated for 24 hrs in dark by MTT assay relative to control; format: functional; conditions: HCT-116, 24 h, read-out: Activity
HCT-116 [21] = assay: Phototoxicity against human HCT116 cells assessed as cell viability at 100 uM incubated for 24 hrs under 17.5 mW/cm2 light irradiation by MTT assay relative to control; format: functional; conditions: HCT-116, light or radiation study, read-out: Activity
HCT-116 [22] = assay: Phototoxicity against human HCT116 cells assessed as cell viability at 50 uM incubated for 24 hrs under 17.5 mW/cm2 light irradiation by MTT assay relative to control; format: functional; conditions: HCT-116, light or radiation study, read-out: Activity
HCT-116 [23] = assay: Phototoxicity against human HCT116 cells assessed as cell viability at 5 uM incubated for 24 hrs under 17.5 mW/cm2 light irradiation by MTT assay relative to control; format: functional; conditions: HCT-116, light or radiation study, read-out: Activity
HCT-116 [24] = assay: Phototoxicity against human HCT116 cells assessed as cell viability at 1 uM incubated for 24 hrs under 17.5 mW/cm2 light irradiation by MTT assay relative to control; format: functional; conditions: HCT-116, light or radiation study, read-out: Activity
HCT-116 [25] = assay: Phototoxicity against human HCT116 cells assessed as cell viability at 0.5 uM incubated for 24 hrs under 17.5 mW/cm2 light irradiation by MTT assay relative to control; format: functional; conditions: HCT-116, light or radiation study, read-out: Activity
HCT-116 [26] = assay: Phototoxicity against human HCT116 cells assessed as reduction in cell viability incubated for 24 hrs under 17.5 mW/cm2 light irradiation by MTT assay; format: functional, cell-based; conditions: HCT-116, light or radiation study
HCT-116 [27] = assay: Induction of apoptosis in human HCT116 cells assessed as viable cells at 10 uM incubated for 24 hrs in presence of irradiation by annexin V FITC and propidium iodide based flow cytometry (reference value: 94.8 %); format: functional; conditions: HCT-116, light or radiation study, read-out: Activity
HCT-116 [28] = assay: Induction of apoptosis in human HCT116 cells assessed as early apoptotic cells at 10 uM incubated for 24 hrs in presence of irradiation by annexin V FITC and propidium iodide based flow cytometry (reference value: 3.4 %); format: functional
HCT-116 [29] = assay: Induction of apoptosis in human HCT116 cells assessed as necrotic cells at 10 uM incubated for 24 hrs in presence of irradiation by annexin V FITC and propidium iodide based flow cytometry (reference value: 0.2 %); format: functional

Structure (SMILES) | Activity [1] | Activity [2] | Drug degradation [3] [%] | Activity (Calf thymus DNA [4]) [%] | Kb (Calf thymus DNA [5]) | Activity (Calf thymus DNA [6]) | Activity (DNA [7]) | Activity (DNA [8]) [%] | inhibition [9] [%] | inhibition [10] [%] | Activity [11] [%] | inhibition [12] [%] | inhibition [13] [%] | Activity (HCT-116 [14]) | viability at 100 µM (HCT-116 [15]) [%] | viability at 50 µM (HCT-116 [16]) [%] | IC50 (HCT-116 [17]) [µM] | viability at 5 µM (HCT-116 [18]) [%] | viability at 1 µM (HCT-116 [19]) [%] | viability at 0.5 µM (HCT-116 [20]) [%] | further results
CC1=CC(/C=C/c2ccc(OCCCc3ccc[n+](C)c3)cc2)=[N+]2C1=C(c1ccc(OCCCc3ccc[n+](C)c3)cc1)c1c(C)cc(/C=C/c3ccc(OCCCc4ccc[n+](C)c4)cc3)n1[B-]2(F)F.[I-].[I-].[I-] | 0.46 | 0.21 | 17.7 | 47.8 | 1.87 ×10⁴ /M | Active | inactive | 76.8 | 88.6 | 89 | 77.2 | 54.6 | 56.2 | inactive | 57 | 67 | > 100 | 91 | 100 | 100 | Activity (HCT-116 [17]): Dose-dependent effect; viability at 100 µM (HCT-116 [21]): 0%; viability at 50 µM (HCT-116 [22]): 6%; viability at 5 µM (HCT-116 [23]): 25%; viability at 1 µM (HCT-116 [24]): 97%; viability at 0.5 µM (HCT-116 [25]): 100%; IC50 (HCT-116 [26]): 3.95 µM; viability at 10 µM (HCT-116 [27]): 9.6%; Activity (HCT-116 [28]): 54.4%; Activity (HCT-116 [29]): 3.4%
CC1=CC(/C=C/c2ccc(OCCCc3ccc[n+](C)c3)c(OCCCc3ccc[n+](C)c3)c2)=[N+]2C1=C(c1ccc(OCCCc3ccc[n+](C)c3)c(OCCCc3ccc[n+](C)c3)c1)c1c(C)cc(/C=C/c3ccc(OCCCc4ccc[n+](C)c4)c(OCCCc4ccc[n+](C)c4)c3)n1[B-]2(F)F.[I-].[I-].[I-].[I-].[I-].[I-] | 0.62 | 0.3 | 18.7 | 46.7 | 1.59 ×10³ /M | Active | inactive | 58.5 | 89.4 | 89.9 | 87.7 | 58.7 | 61.5 | inactive | 90 | 100 | > 100 | 96 | 100 | 100 | viability at 100 µM (HCT-116 [21]): 66%; viability at 50 µM (HCT-116 [22]): 85%; viability at 5 µM (HCT-116 [23]): 100%; viability at 1 µM (HCT-116 [24]): 100%; viability at 0.5 µM (HCT-116 [25]): 100%; IC50 (HCT-116 [26]): > 100 µM; viability at 10 µM (HCT-116 [27]): 95.5%; Activity (HCT-116 [28]): 3.3%; Activity (HCT-116 [29]): 0.1%
